Results published in US10881702B2, “Celastrol and derivatives thereof for the treatment of tumours and precancerous diseases of the skin” (PIERRE FABRE MEDICAMENT, priority 2016, dated 2021).

Experiments:
[1] = test system: healthy skin (epidermal keratinocytes); format: in vivo, mice (SKH-1); conditions: occlusive patch 30 h
From the text: Apoptosis is a fundamental event in cell development (proliferation). The visualisation of apoptosis and the subsequent healing phenomenon reflects the efficacy of medicaments in the treatment of precancerous and cancerous cells. Picato® (0.015% ingenol mebutate) is a product on the market which is indicated for the treatment of actinic keratosis. Picato® is known to induce cell death by a necrotic effect that rapidly eliminates dead cells, followed by a healing phase. To evaluate the “apoptotic” power of celastrol on skin cells (epidermal keratinocytes), we compared the apoptotic effect induced by the topical application of celastrol compared to that of a product already on the market.
(§1) Non-inbred hairless SKH-1 strain mice are most commonly used in preclinical dermatological research. These non-pigmented and immunocompetent mice allow easy manipulation of the skin, application of topical agents, exposure to UV radiation and easy visualisation of the cutaneous response. Wound healing, acute biological photo responses and skin carcinogenesis are well characterised in this mouse strain. In addition, the tumours induced in these mice resemble, at both the molecular and the morphological level, UV-induced malignant skin tumours in humans. In this study on healthy skin, 6- to 8-week-old SKH-1 females (18 to 20 grams; Charles River Laboratories) are treated topically with the various compounds.
(§2) Picato® (0.015% ingenol mebutate), used in humans to treat actinic keratosis lesions, was administered topically to the animals (2 to 3 animals per group) for 24 hours under a 19-mm-diameter, i.e., 2.83 cm^2, occlusive patch (Hill Top Research, USA). The patch is loaded with 200 μL of Picato® cream, i.e. 30 μg of active ingredient. The treated skin area is delimited by tattooing on each mouse and the patch is held on the mouse using Tegaderm™ film and Omnifix® and Elastoplast™ adhesive tape. The occlusive dressing is removed after 24 hours, and the animals are followed clinically for 3 to 4 weeks.
Celastrol (Euromedex) is formulated in a vehicle consisting of 5% DMSO-70% glycerol-25% water. The pH is adjusted by adding soda to around 8-8.5 in order to completely solubilise the powder. The initial concentration is 10 mg/mL then serial dilutions in the vehicle yield concentrations of 5 and 2.5 mg/mL. Celastrol is applied topically for 30 hours under a 19-mm-diameter occlusive patch. The patches are loaded with 200 μL of the various celastrol solutions, i.e. 2000 μg, 1000 μg or 500 μg of active ingredient.
The treated skin area is delimited by tattooing on each mouse and the patch is held on the mouse using Tegaderm™ film and Omnifix® and Elastoplast™ adhesive tape. The occlusive bandage is removed after 30 hours and the animals are followed clinically for 3 to 4 weeks.
The animals are weighed twice per week. The treated area of each animal is photographed two to three times per week in order to follow the progression of the cutaneous reaction and healing.

[2] = Clinical monitoring: body weight of topically treated SKH-1 mice; format: in vivo, mice (SKH-1)
From the text: as §1
as §2, with “weeks. […]” for “weeks.”

SMILES: CC1=C(O)C(=O)C=C2C1=CC=C1[C@@]2(C)CC[C@@]2(C)[C@@H]3C[C@](C)(C(=O)O)CC[C@]3(C)CC[C@]12C [celastrol]
- scar area on day 28 ([1]; celastrol 1000 μg and 2000 μg doses): slight hypertrophy of the scar area
- cutaneous reaction first visible ([1]; celastrol 500, 1000, 2000 μg, 24 hours after discontinuation): 3 days
- healing process starts ([1]; celastrol 500-2000 μg, dose-dependent): 7 days
- depth of the pro-apoptotic action ([1]; celastrol 500-2000 μg, localised in the epidermis): superficial
- dose from which apoptosis of epidermal cells is induced in vivo ([1]; celastrol topical, dose-dependent): ≥ 500 μg/application
- haemorrhagic zones ([1]; celastrol, even at the highest dose (2000 μg)): no haemorrhagic zones are observed
- systemic toxicity / tolerance ([2]; topical route at the doses used, SKH-1 mice): no systemic toxicity
- effect on the weight of SKH-1 mice ([2]; topical, occlusive patch, Picato 200 μL (30 μg) 24 h, celastrol 500-2000 μg 30 h, weighed twice per week): no effect on the weight
